Measured values taken from US20260224595A1, “COMPOUNDS FOR THE TREATMENT OF MYOTONIC DYSTROPHY” (ETH ZURICH, priority 2022, published 2026).

System: targetomes of let-7, miR-1, miR-9, miR-29, miR-30, miR-107 and miR-181
Assay: RNA-Seq of miRNA targetomes in DM myoblasts and myotubes
Assay type: cell-based, human
Protocol: As described in Example 3, total RNA was isolated from DM-patient and healthy cells, and cDNA libraries were prepared for three conditions (healthy volunteer (HV); DM; DM+Compound II) for DM1 and DM2 backgrounds. The expression levels of predicted targetomes of miRNAs let-7, miR-1, miR-9, miR-29, miR-30, miR-107 and miR-181 were then compared, using miR-122 as well as more than 2,000 transcripts that are not predicted targets of any miRNA as negative controls. Three pair-wise comparisons were performed to measure: i) how a targetome varies between healthy and diseased cells (HV versus DM), ii) how a targetome responds to treatment with the inventive compounds (DM versus DM+Compound II) and, iii) how a Compound II-treated DM-targetome compares to that of a healthy signature. For each pair-wise comparison, the third dataset was used as a reference and the fold changes were calculated for each target transcript (e.g. DM1 vs. DM1+Compound II, with fold changes calculated relative to HV).
Primary myoblasts or myotubes derived from DM1 or DM2 patient samples and non-DM healthy control individuals were cultured for 90% confluence and then treated with 120 μM Compound II for 72 h. Myoblasts were harvested by trypsinization, and separately myotubes were isolated by a minimal trypsin treatment followed by gentle centrifugation to sediments to separate them from the remaining mono-nucleated cells. Cell pellets were washed with PBS and RNA isolation was performed with Trizol® by using the Dircet-zol™ RNA MiniPrep Plus Kit (ZYMO Research, Freiburg, Germany). Library preparation was performed using the TruSeq Stranded mRNA Kit (Illumina, San Diego, CA, USA) with the TruSeq RNA Single Index Set A (Illumina) according to the recommended procedure. Quality and size distribution of the generated libraries was validated using an Agilent 2100 bioanalyzer with high-sensitivity RNA chip (Agilent) and RNA yield was measured using the Qubit […] HS Assay Kit followed by pooling of the libraries in batches of 12 and sequencing of […] pooled library on an Nextseq 500/High Output Flow Cell Cartridge using a paired end, 2×76 reads, single index protocol.
RNA-Seq reads were mapped to the human genome (build GRCh38) using STAR (Dobin et al., (2013). STAR: ultrafast universal RNA-seq aligner. Bioinformatics 29, 15-21) with gene annotations from gencode (www.gencodegenes.org; version 40). Reads mapping uniquely to exons were counted for each gene using htseq-count (Anders et al., (2015). HTSeq—a Python framework to work with high-throughput sequencing data. Bioinformatics 31, 166-169) with the parameter -s reverse and -m intersection_strict. Expression levels were quantified as TPM (transcripts per million), by dividing read counts by the total exon length for each gene, and then normalising by the sum of all values in each sample and multiplying by one million. Fold changes were calculated between the average expression levels in three conditions: DMSO-treated healthy volunteer samples (HV), DMSO-treated DM patient samples (DM), and Compound II-treated DM patient samples (DM+Compound II). Genes with an average TPM>1 were considered in each of these three conditions. For myoblasts, three samples were included for all conditions. For myotubes, three samples were included for the HV, DM1 and DM2 conditions, but two Compound II-treated samples were excluded (one DM1 and one DM2) due to a very low read count (<500000 exonic reads), resulting in […] and two DM2+Compound II myotube samples being included in the analysis. Cumulative density functions of expression changes of miRNA target genes were plotted using custom python scripts.

Structure (SMILES): CC(=O)N(C)c1cccc(-c2ccc3nnc(C)n3n2)c1 [Compound II]
- shift of the targetomes of the miRNAs tested versus healthy volunteers (DM1 and DM2 cells, FIGS. 5B, 5D, 6B and 6D): levels comparable to those of healthy volunteers
- median suppression of the targetomes of let-7 and miRs -9, -1, -29, -30, -107, -181 (DM1 myoblasts, 120 μM, 72 h, RNA-Seq): 10-12%
- CDF curves of DM1+Compound II versus HV targetome signature for miR-1, miR-9, miR-29, miR-30 and miR-107 (DM1 myoblasts, FIG. 5B): indistinguishable overlay
- median suppression of the seven miRNA targetomes (DM1 myotubes, 120 μM, 72 h, RNA-Seq): 12-15%
- median suppression of the seven targetomes (DM2 myoblasts, 120 μM, 72 h, RNA-Seq): 22-25%
- targetome shift versus HV signature (DM2 myoblasts, FIG. 5D): overshoot
- median suppression of the seven miRNA targetomes (DM2 myotubes, 120 μM, 72 h, RNA-Seq): 10-12%
